Patent US9839614B2, “Nanoparticle and polymer formulations for thyroid hormone analogs, antagonists, and formulations and uses thereof” (NANOPHARMACEUTICALS LLC, priority 2009, dated 2017)

What was measured:
[1] = test system: ERK1/2; experiment: MAPK activation in ECV304 cells (nuclear phosphorylated ERK1/2 immunoblot); assay type: cell-based; conditions: for effect on T4-induced ERK1/2 (MAPK) activation: PD 98059 30 μmol/L or CGP41251 100 nmol/L, 30 minutes before T4
Description: ECV304 endothelial cells were cultured in M199 medium with 0.25% hormone-depleted serum 13 for 2 days. […] Nuclear fractions were pre-pared from all samples by the method reported previously (see Li et al., Carcinogenesis 29:62-69 (2008)), the proteins separated by polyacrylamide gel electrophoresis, and transferred to membranes for immunoblotting with antibody to phosphorylated ERK 1/2.

[2] = cited from earlier work
[3] = test system: V-79 cells; conditions: reduced from 3.4; cited from earlier work
[4] = test system: FGF2 cDNA; experiment: RT-PCR of FGF2 in ECV304 cells; assay type: cell-based; conditions: T4 10^−7 mol/L, 6 to 48 hours
Description: RNA (1 μg) was subjected to reverse transcription-polymerase chain reaction (RT-PCR) using the Access RT-PCR system (Promega). Total RNA was reverse transcribed into cDNA at 48° C. for 45 minutes, then denatured at 94° C. for 2 minutes. Second-strand synthesis and PCR amplification were performed for 40 cycles with denaturation at 94° C. for 30 s, annealing at 60° C. for 60 s, and extension at 68° C. for 120 s, with final ex-tension for 7 minutes at 68° C. after completion of all cycles. PCR primers for FGF2 were as follows: FGF2 sense strand 5′-[…]-3′ (SEQ ID NO:1), antisense strand 5′ […]-3′ (SEQ ID NO:2); the length of the PCR product was 734 bp. Primers for GAPDH included the sense strand 5′-[…]-3′ (SEQ ID NO:3), and antisense strand 5′-[…]-3′ (SEQ ID NO:4); the length of the PCR product was 218 bp. […] The target bands of the gel were quantified using Lablmage software (Kapelan), and the value for [FGF2/GAPDH]X10 calculated for each time point.

[5] = estimated; cited from earlier work
[6] = test system: chick chorioallantoic membrane (CAM) blood vessel branching; experiment: Chorioallantoic membrane (CAM) model of angiogenesis; assay type: in vivo
Description: In vivo neovascularization was examined by methods described previously. 9-12 Ten-day-old chick embryos were purchased from SPAFAS (Preston, Conn.) and incubated at 37° C. with 55% relative humidity. A hypodermic needle was used to make a small hole in the shell concealing the air sac, and a second hole was made on the broad side of the egg, directly over an avascular portion of the embryonic membrane that was identified by candling. A false air sac was created beneath the second hole by the application of negative pressure at the first hole, causing the CAM to separate from the shell. A window approximately 1.0 cm^2 was cut in the shell over the dropped CAM with a small-crafts grinding wheel (Dremel, division of Emerson Electric Co.), allowing direct access to the underlying CAM. […] Sterile disks of No. 1 filter paper (Whatman International) were pretreated with 3 mg/mL cortisone acetate and 1 mmol/L PTU and air dried under sterile conditions. Thyroid hormone, hormone analogs, FGF2 or control solvents, and inhibitors were then applied to the disks and the disks allowed to dry. The disks were then suspended in PBS and placed on growing CAMs. […] At 24 hours, the MAPK cascade inhibitor PD 98059 was also added to CAMs topically by means of the filter disks.
After incubation at 37° C. with 55% relative humidity for 3 days, the CAM tissue directly beneath each filter disk was resected from control and treated CAM samples. Tissues were washed 3× with PBS, placed in 35-mm Petri dishes (Nalge Nunc), and examined under an SV6 stereomicroscope (Zeiss) at X50 magnification. Digital images of CAM sections exposed to filters were collected using a 3-charge-coupled device color video camera system (Toshiba) and analyzed with Image-Pro software (Media Cybernetics). The number of vessel branch points contained in a circular region equal to the area of each filter disk were counted. One image was counted in each CAM preparation, and findings from 8 to 10 CAM preparations were analyzed for each treatment condition (thyroid hormone or analogs, FGF2, FGF2 antibody, PD 98059). In addition, each experiment was performed 3 times. The resulting angiogenesis index is the mean±SEM of new branch points.

[7] = test system: SF763 glioblastoma cells; conditions: 85 μM, 16 hours at 37° C., cited from earlier work
[8] = test system: ECV304 endothelial cells; experiment: FGF2 release from ECV304 endothelial cells (ELISA); assay type: cell-based
Description: ECV304 endothelial cells were cultured in M199 medium supplemented with 10% fetal bovine serum. […] After 72 hours, the supernatants were harvested and assays for FGF performed without dilution using a commercial ELISA system (R&D Systems) (See Davis et al., Circ Res 94:1500-1506 (2004)).

[9] = test system: glioblastoma (GBM); conditions: mild hypothyroidism induced by PTU; cited from earlier work
[10] = test system: Morris 7800 hepatoma neoplasms; conditions: PTU 0.1%; cited from earlier work
[11] = test system: transplantable liver tumor; conditions: cited from earlier work
[12] = test system: M21 cells; conditions: 20 ug/ml; 0, 5, and 10 Gy; cited from earlier work

## CO[C@@H]1[C@H](N(C)C(=O)c2ccccc2)C[C@H]2O[C@]1(C)n1c3ccccc3c3c4c(c5c6ccccc6n2c5c31)C(=O)NC4 [CGP41251]
[1]
  effect on T4-induced ERK1/2 (MAPK) activation: blocked the effect of the hormone on MAPK activation

## NC(=O)c1cccc(N)c1 [Compound 3AB, 3-aminobenzamide]
[2]
  inhibition of PLDR: ~70%
[3]
  Dq value: 1 Gy

## N[C@@H](Cc1cc(I)c(Oc2cc(I)c(O)c(I)c2)c(I)c1)C(=O)O [Compound T4, L-thyroxine]
[4]
  FGF2 cDNA abundance corrected for GAPDH: increase in abundance of FGF2 cDNA
[5]
  pKa, COOH (carboxylic acid) group: ~2.0
  pKa, NH2 (amino) group: approximately 9.0
[1]; T4 10^−7 mol/L
  time of maximal level of nuclear phosphorylated ERK1/2: 30 min
  time to appearance of phosphorylated ERK1/2 in cell nuclei: ≤ 15 min
[6]; 10^−7-10^−9M
  generation of new blood vessels from existing vessels promoted: two-to three-fold
[6]; T4 0.05 μmol/L + FGF2 0.5 μg/mL
  combined effect of sub-maximal hormone and growth factor: additive
[6]; T4, anti-FGF2 experiments (FIG. 5A)
  stimulation of angiogenesis: 1.5 fold

## CC(C)[C@H]1C(=O)N[C@@H](CCCN=C(N)N)C(=O)NCC(=O)N[C@@H](CC(=O)O)C(=O)N[C@H](Cc2ccccc2)C(=O)N1C [EMD121974]
[7]
  increase of α: 4.4 fold
[7]; from approximately 0.04
  α component in the LQ survival equation: 0.18 Gy^−1

## COc1cccc(-c2cc(=O)c3ccccc3o2)c1N [PD 98059]
[8]; T3 + PD 98059 (2 μmol/L)
  FGF2 (pg/mL/10^6 cells): 28.4 ± 3.2 pg/mL/10^6 cells
[8]; T3 + PD 98059 (20 μmol/L)
  FGF2 (pg/mL/10^6 cells): 21.7 ± 3.5 pg/mL/10^6 cells
[8]; T4 + PD 98059 (2 μmol/L)
  FGF2 (pg/mL/10^6 cells): 26.5 ± 4.5 pg/mL/10^6 cells
[8]; T4 + PD 98059 (20 μmol/L)
  FGF2 (pg/mL/10^6 cells): 23.2 ± 4.8 pg/mL/10^6 cells
[1]
  effect on T4-induced ERK1/2 (MAPK) activation: inhibited
[6]; 3 μmol/L PD 98059
  effect on T3 + T4 stimulated blood vessel branching: completely blocked
[6]; PD 98059 with FGF2 1 μg/mL
  effect on FGF2 stimulation of branch formation: effectively blocked

## CCCc1cc(=O)[nH]c(=S)[nH]1 [PTU, 6-N-propyl-2-thiouracil]
[9]
  improvement of duration of survival: 3 fold
[10]
  increase in survival: approximately 1.3 fold
[11]; 10 Gy of x-rays plus 0.05% PTU, control 6.2, x-rays alone 11.2
  time needed to grow from approximately 270 mm^3 to 900 mm^3: 17.8 days
[11]; PTU alone
  tumor growth rate versus control: no difference in growth rate

## CNTO 95: human anti-αv integrin monoclonal antibody
[12]
  increase in sensitivity (in vitro apoptosis): 2 fold
